Results published in publication PMC5706701, “Development of a homogenous high-throughput assay for inositol hexakisphosphate kinase 1 activity” (PLoS ONE, 2017).
Counter-ions that a name gives are not always drawn. Like-named read-outs stand apart in the source and are kept apart here.

Target: T1, Human IP6K1 (Homo sapiens, UniProt Q92551)
T1 construct: GST (N, cleaved yes); made in house; host or cells: C43 E. coli, pGEX-6P-2
Test: IP6K1 high-throughput screen of the Sigma LOPAC (ADP-Glo Max, single point);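 also: final compound concentration 10µM in 5% DMSO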
Type: biochemical

[1] = Sigma LOPAC single-point screen, ADP-Glo Max raw signal per well
[2] = Sigma LOPAC single-point screen, Z-score from plate average and StDev
[3] = LOPAC single-point screen, ADP-Glo Max luminescence raw signal per well
[4] = LOPAC single-point screen, Z-score from plate average and StDev
[5] = LOPAC single-point screen, Z-score relative to plate average and StDev
[6] = LOPAC single-point screen, ADP-Glo Max raw signal per well
[7] = LOPAC single-point screen, Z-score against plate average and StDev
[8] = LOPAC single-point screen, Z-score from raw signal with plate average and StDev

T1 sequence (Q92551 whole entry): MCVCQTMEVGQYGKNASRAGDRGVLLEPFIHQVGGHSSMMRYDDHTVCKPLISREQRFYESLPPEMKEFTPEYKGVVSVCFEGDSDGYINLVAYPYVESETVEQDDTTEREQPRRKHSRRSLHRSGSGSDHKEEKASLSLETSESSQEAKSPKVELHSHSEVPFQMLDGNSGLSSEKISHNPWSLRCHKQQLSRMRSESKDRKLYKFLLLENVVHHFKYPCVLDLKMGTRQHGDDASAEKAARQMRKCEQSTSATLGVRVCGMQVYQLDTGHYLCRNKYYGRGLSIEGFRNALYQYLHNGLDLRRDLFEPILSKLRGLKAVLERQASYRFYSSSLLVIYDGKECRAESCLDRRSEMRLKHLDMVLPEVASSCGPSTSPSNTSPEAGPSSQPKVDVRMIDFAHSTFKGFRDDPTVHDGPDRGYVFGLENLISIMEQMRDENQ

Q: Which results are given for `CC(=O)NBr` [N-Bromoacetamide]?
A: Raw Signal [1]: 65186; Z-score [2]: 1.281

Q: What does the source list for `O=C(O)/C=C\C(=O)O.c1cnc(N2CCN(Cc3ccc4c(c3)OCO4)CC2)nc1` [Piribedil maleate]?
A: Raw Signal [1]: 62540; Z-score [2]: 1.266

Q: How did the “Raw Signal” value [1] turn out when `CCOC(=O)C1=C(C)NC(C)=C(C(=O)OC)C1c1cccc([N+](=O)[O-])c1` (centres unmarked) [Nitrendipine] was run?
A: Its value is 58110.

Q: And the Z-score [2]?
A: Its Z-score is 0.6245.

Q: Which results are given for `CN1CCc2cc3c(cc2[C@H]1[C@@H]1OC(=O)c2c1ccc1c2OCO1)OCO3` [(+)-Bicuculline]?
A: Raw Signal [3]: 66353; Z-score [4]: 1.4865

Q: What does the source list for `CNCCc1ccc(O)c(O)c1.Cl` [N-Methyldopamine hydrochloride]?
A: Raw Signal [3]: 45936; Z-score [5]: -1.875

Q: With `NCCCCCC(=O)O` [6-Aminohexanoic acid] as the compound, how does the “Raw Signal” value [3] read?
A: Its value is 70191.

Q: And the Z-score [4]?
A: Its Z-score is 2.162.

Q: How did the “Raw Signal” value [1] turn out when `CC[N+](C)(C)c1cccc(O)c1` [Edrophonium chloride] was run?
A: Its value is 58129.

Q: What about the Z-score [2] of the same compound?
A: The Z-score was 0.6015.

Q: For `CC(=O)N1CCN(c2ccc(OCC3COC(Cn4ccnc4)(c4ccc(Cl)cc4Cl)O3)cc2)CC1` (centres unmarked) [Ketoconazole], which “Raw Signal” value [3] is on record?
A: The value was 49591.

Q: And the Z-score [5]?
A: The Z-score was -0.8069.

Q: How did the “Raw Signal” value [1] turn out when `COc1cc(Cc2cnc(N)nc2N)cc(OC)c1OC` [Trimethoprim] was run?
A: Its value is 61776.

Q: What about the Z-score [2] of the same compound?
A: The Z-score was 1.118.

Q: Which “Raw Signal” value [1] does the source give for `OCCN1CCN(CCCN2c3ccccc3Sc3ccc(C(F)(F)F)cc32)CC1` [Fluphenazine dihydrochloride] here?
A: The value was 57313.

Q: And the Z-score [2]?
A: The Z-score was 0.4358.

Q: With `CCn1cc(C(=O)O)c(=O)c2cc3c(cc21)OCO3` [Oxolinic acid] as the compound, how does the “Raw Signal” value [1] read?
A: Its value is 60270.

Q: And the Z-score [2]?
A: Its Z-score is 0.9874.

Q: Which results are given for `CCC1(C)CC(=O)NC1=O` (centres unmarked) [Ethosuximide]?
A: Raw Signal [1]: 57090; Z-score [2]: 0.3905

Q: Which results are given for `Cc1c(C)c2c(c(C)c1O)CCC(C)(CN1CCN(c3cc(N4CCCC4)nc(N4CCCC4)n3)CC1)O2.Cl.Cl` (centres unmarked) [U-83836 dihydrochloride]?
A: Raw Signal [3]: 52883; Z-score [5]: -0.6102

Q: Which “Raw Signal” value [1] does the source give for `CCN(CC)CCCC(C)Nc1c2ccc(Cl)cc2nc2ccc(OC)cc12` (centres unmarked) [Quinacrine dihydrochloride] here?
A: The value was 60550.

Q: And the Z-score [2]?
A: Its Z-score is 0.8794.

Q: What does the source list for `CN(C)CCC(c1ccc(Br)cc1)c1ccccn1.O=C(O)/C=C\C(=O)O` (racemic) [(±)-Brompheniramine maleate]?
A: Raw Signal [6]: 59748; Z-score [7]: 0.3232

Q: What does the source list for `CSc1ccc(C(=O)c2[nH]c(=O)[nH]c2C)cc1` [Enoximone]?
A: Raw Signal [3]: 64614; Z-score [4]: 1.919

Q: Which “Raw Signal” value [6] does the source give for `S=C([S-])OC1CC2CC1C1CCCC21.[K+]` [D-609 potassium] here?
A: Its value is 55448.

Q: And the Z-score [8]?
A: Its Z-score is -0.1119.

Q: With (+)-Catechin Hydrate as the compound, how does the “Raw Signal” value [6] read?
A: The value was 56524.

Q: What about the Z-score [8] of the same compound?
A: The Z-score was -0.2447.

Q: With `C[C@@H]1O[C@@H]1P(=O)(O)O` [Phosphomycin disodium] as the compound, how does the “Raw Signal” value [3] read?
A: The value was 62776.

Q: And the Z-score [4]?
A: The Z-score was 1.408.

Q: `Cc1ccccc1/C=C/C1=NCCN1` [Metrazoline oxalate] was tested. Which “Raw Signal” value [3] did it give?
A: Its value is 51543.

Q: What about the Z-score [5] of the same compound?
A: The Z-score was -0.479.

Q: With `Cl.N=C(N)NN` [Aminoguanidine hydrochloride] as the compound, how does the “Raw Signal” value [6] read?
A: Its value is 58743.

Q: And the Z-score [7]?
A: The Z-score was 0.1462.

Q: What does the source list for `CCCN(CCC)C(=O)Cc1c(-c2ccc(Cl)cc2)nc2c(Cl)cc(Cl)cn12` [CB34]?
A: Raw Signal [1]: 60254; Z-score [2]: 0.4123

Q: With `CC(C)NP(=O)(NC(C)C)OP(=O)(NC(C)C)NC(C)C` [Tetraisopropyl pyrophosphoramide] as the compound, how does the “Raw Signal” value [6] read?
A: Its value is 57279.

Q: And the Z-score [7]?
A: The Z-score was 0.2439.

Q: For `Cc1cccc(C)c1N=C1NCCCS1` [Xylazine hydrochloride], which “Raw Signal” value is on record?
A: The value was 56727.

Q: What about the Z-score of the same compound?
A: The Z-score was 0.1366.

Q: Which “Raw Signal” value [3] does the source give for `CCCC(C(=O)OCCN(CC)CC)(c1ccccc1)c1ccccc1.Cl` [SKF-525A hydrochloride] here?
A: Its value is 51241.

Q: What about the Z-score [5] of the same compound?
A: The Z-score was -0.5297.

Q: What does the source list for `CN1C2CCC1CC(NC(=O)c1nn(C)c3ccccc13)C2.O=C(O)/C=C\C(=O)O` (centres unmarked) [LY-278,584 maleate]?
A: Raw Signal [3]: 49124; Z-score [5]: -0.8854

Q: `[H]/N=C(/NC)NCCC[C@H](N)C(=O)O` [NG-Monomethyl-L-arginine acetate] was tested. Which “Raw Signal” value [3] did it give?
A: Its value is 51513.

Q: And the Z-score [5]?
A: The Z-score was -0.484.

Q: `Nc1nc2ccc(OC(F)(F)F)cc2s1` [Riluzole] was tested. Which “Raw Signal” value [3] did it give?
A: The value was 52217.

Q: What about the Z-score [5] of the same compound?
A: The Z-score was -0.7396.

Q: Which results are given for `CNC(=O)Oc1ccc2c(c1)[C@]1(C)CCN(C)[C@@H]1N2C` [(-)-Physostigmine]?
A: Raw Signal [3]: 62569; Z-score [4]: 1.503

Q: Which results are given for `CCCCCCN(CCCCCC)C(=O)Cc1c(-c2ccc(F)cc2)[nH]c2ccccc12`?
A: Raw Signal [6]: 56591; Z-score [7]: 0.2892

Q: Which “Raw Signal” value [6] does the source give for `NC[C@@H]1O[C@H](O[C@H]2[C@@H](O)[C@H](O[C@@H]3[C@@H](O)[C@H](N)C[C@H](N)[C@H]3O[C@H]3O[C@H](CO)[C@@H](O)[C@H](O)[C@H]3N)O[C@@H]2CO)[C@H](N)[C@@H](O)[C@@H]1O` [Paromomycin sulfate] here?
A: The value was 55765.

Q: What about the Z-score [7] of the same compound?
A: The Z-score was -0.05028.
